According to patent publication US7211574B2, “Selective D1/D5 receptor antagonists for the treatment of obesity and CNS disorders” (Schering Corporation, priority 2002, dated 2007):
Like-named read-outs stand apart in the source and are kept apart here.

What was measured:
human D1 receptor = biological target: T1, human D1 receptor (Homo sapiens, UniProt P21728); assay: radioligand binding competition assay, D1
T1 construct: expressed in transfected cells; host or cells: Ltk- cells (mouse fibroblast line), membrane preparation
Protocol: (§1) Affinity values (Ki) of compounds at human D1 and D2 receptors were ascertained using radioligand binding competition assays. Ltk- cells expressing D1 and D2 (long variant) receptors were lysed in hypotonic buffer for membrane preparation. Membranes were incubated with various concentrations of test compound and 1 nM [3H] of a compound of formula III and 0.2 nM [3H] Methylspiperone for D1 and D2 assays, respectively. Non-specific binding was defined as binding in the presence of 10 micromolar of a compound of formula III for D1 assays and 10 micromolar butaclamol for […]. Following incubation to equilibrium (1 hour at room temperature), bound radioligand was separated from free by rapid filtration. Bound radioactivity on the dried filters was quantified by liquid scintillation counting.

[1] = biological target: T2, human D2 (long variant) receptor (Homo sapiens, UniProt P14416); assay: radioligand binding competition assay, D2; details: membranes of Ltk- cells expressing D2 (long variant); 0.2 nM [3H] Methylspiperone; 1 hour at room temperature
T2 construct: expressed in transfected cells; host or cells: Ltk- cells (mouse fibroblast line), membrane preparation
Protocol: as §1

[2] = membranes of Ltk- cells expressing D1, 1 nM [3H] compound of formula III, 1 hour at room temperature, read-out: D1 (Ki)

T1 sequence (P21728 whole entry): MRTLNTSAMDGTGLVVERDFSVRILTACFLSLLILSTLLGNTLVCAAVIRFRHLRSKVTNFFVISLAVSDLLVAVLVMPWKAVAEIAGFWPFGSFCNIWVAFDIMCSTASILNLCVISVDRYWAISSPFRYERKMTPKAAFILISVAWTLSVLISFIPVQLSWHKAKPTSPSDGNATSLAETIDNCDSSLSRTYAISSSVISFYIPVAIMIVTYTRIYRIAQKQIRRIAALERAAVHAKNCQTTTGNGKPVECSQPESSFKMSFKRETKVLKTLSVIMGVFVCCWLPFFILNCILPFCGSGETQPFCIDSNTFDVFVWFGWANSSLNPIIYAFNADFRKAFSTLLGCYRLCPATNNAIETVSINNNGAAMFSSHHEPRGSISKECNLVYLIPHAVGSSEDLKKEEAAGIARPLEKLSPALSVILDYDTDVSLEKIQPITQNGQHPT

Row | SMILES | Ki (human D1 receptor; [2]) [nM] | Ki (human D1 receptor) [nM] | Ki [1] [nM]
1 | Oc1nc2c(Cl)cc3c(c2[nH]1)[C@H]1c2ccccc2CC[C@@H]1NCC3 [Compound 18A] |  | 16.5 | 3270
2 | CN1CCc2cc(Cl)c3[nH]c(=S)[nH]c3c2[C@H]2c3ccccc3CC[C@@H]21 [Compound 17A] |  | 40 | 1040
3 | CN1CCc2cc(Cl)c3[nH]c(=O)sc3c2[C@H]2c3ccccc3CC[C@@H]21 [Compound 25A] |  | 2.1 | 257
4 | CN1CCc2cc(Cl)c3[nH]c(O)nc3c2[C@H]2c3ccccc3CC[C@@H]21 [Compound 16A] |  | 7 | 1020
5 | CN1CCc2cc(Cl)c3[nH]nnc3c2[C@H]2c3ccccc3CC[C@@H]21 [Compound 15A] | 146 |  | 1530
6 | O=c1[nH]c2c(Cl)cc3c(c2s1)[C@H]1c2ccccc2CC[C@@H]1NCC3 [Compound 26A] |  | 6.5 | 661
7 | CN1CCc2cc(Cl)c3[nH]cnc3c2[C@H]2c3ccccc3CC[C@@H]21 [Compound 13A] | 248 |  | 984
8 | Cc1cc2c3c(cc(Cl)c2[nH]1)CCN(C)[C@H]1CCc2ccccc2[C@H]31 [Compound 8] |  | 24.7 | 232

Further lines, with some results ahead:

Row | Ki (human D1 receptor; [2]) [nM] | SMILES | Ki (human D1 receptor) [nM] | Ki [1] [nM]
9 | 14 | CN1CCc2cc(Cl)c3[nH]ncc3c2[C@@H](c2ccccc2)C1 [Compound 4] |  | 3550
10 | 1790 | CN1CCc2cc(Cl)c3[nH]c(=S)[nH]c3c2[C@@H](c2ccccc2)C1 [Compound 17B] |  | 
11 | 350 | CN1CCc2cc(Cl)c3[nH]c(O)nc3c2[C@@H](c2ccccc2)C1 [Compound 16B] |  | 
12 | 1900 | Oc1nc2c(Cl)cc3c(c2[nH]1)[C@@H](c1ccccc1)CNCC3 [Compound 18B] |  | 
13 | 183 | Clc1cc2c(c3cn[nH]c13)[C@@H](c1ccccc1)CNCC2 [Compound 6] |  | 5010
14 | 6.1 | CN1CCc2cc(Cl)c3[nH]c(=O)[nH]c3c2[C@H]2c3cccc(Br)c3CC[C@@H]21 [Compound 16C] |  | 172
15 | 11.3 | O=c1[nH]c2c(Cl)cc3c(c2[nH]1)[C@H]1c2cccc(Br)c2CC[C@@H]1NCC3 [Compound 18C] |  | 648
16 | 1080 | O=c1[nH]c2c(Cl)cc3c(c2s1)[C@@H](c1ccccc1)CNCC3 [Compound 26B] |  | 3200
17 | 1.9 | CN1CCc2cc(Cl)c3[nH]c(=O)[nH]c3c2[C@H]2c3cccc(-c4ccccc4)c3CC[C@@H]21 [Compound 27] |  | 336
18 | 115 | CN1CCc2cc(Cl)c3nc(O)sc3c2[C@@H](c2ccccc2)C1 [Compound 25B] |  | 2890
